Test results published in ChEMBL document CHEMBL1857833, “Screening and optimization of specific chemical series against human African Trypanosomiasis (HAT)”.
Values after ≈ are worked out from the molar mass of the structure shown. Values joined by “and” are separate entries in the source; they are usually repeats but may differ in a detail not shown here. Identical values can stand only once.

Legend:
Trypanosoma brucei = test: DNDI: Inhibition of Human African Trypanosomiasis, SBRI 427, in vitro; format: functional, organism-based
[1] = DNDI: Cytotoxicity against L929 mouse fibroblasts, CYTO-SP, 24 hour; format: toxicity, cell-based; conditions: mouse, L929 mouse fibroblasts
[2] = Trypanosoma brucei, SBRI 427, read-out: IC50

| SMILES | IC50 (Trypanosoma brucei; [2]) [µg/mL] | IC50 (Trypanosoma brucei) | IC50 at 24 h [1] [µg/mL] |
| --- | --- | --- | --- |
| C(=N\OCc1ccccc1)/c1ccccc1-c1ccccc1 | > 5 | – | > 50 |
| O/N=C(\NC1CCCCC1)c1cccc(F)c1 | > 5 | – | > 50 |
| Cc1ccc(Oc2ncccc2/C(=N/O)NCc2cccs2)c2c1CCC2 | 1.09 (≈ 2.87 µM) | – | > 50 |
| CN(/C(=N\O)c1cccnc1OCc1ccccc1F)c1ccccc1 | 1.06 (≈ 3.02 µM) | – | > 50 |
| CC(C)COc1ncccc1/C(=N/O)NC1CCCC1 | 0.96 (≈ 3.46 µM) | – | > 50 |
| O/N=C(\NCC1CCCCC1)c1cccnc1Oc1c(F)cccc1F | 0.91 (≈ 2.52 µM) | – | > 50 |
| Cc1ccccc1CN/C(=N\O)c1cccnc1Oc1c(F)cccc1F | 1.02 (≈ 2.76 µM) | – | > 50 |
| Cc1ccc(Oc2nc(C)ccc2/C(=N/O)NC2CCCCC2)c(C)c1 | – | 0.78 µg/mL and 0.28 µg/mL | 34 (≈ 96.2 µM) |
| COc1ccc(/C(CNC(C)C)=N/O)cc1 | > 5 | – | > 50 |
| Cc1cc(N)nn1Cc1coc(-c2ccc(OC(F)(F)F)cc2)n1 | 1.18 (≈ 3.49 µM) | – | > 50 |
| CCCNC/C(=N\O)c1ccc(OC)cc1 | > 5 | – | > 50 |
| COCC(C)N/C(=N\O)c1ccnc(Oc2ccc(F)c(Cl)c2)c1 (stereo unspecified) | 0.82 (≈ 2.32 µM) | – | > 50 |
| COc1cccc(/C(=N/O)N(C(=O)C(C)C)C(=O)C(C)C)c1 | > 5 | – | > 50 |
| CCO/N=C/c1ccc(OC)cc1 | > 5 | – | > 50 |
| COc1ccc(/C=N/OCC(C)C)cc1 | > 5 | – | > 50 |
| CCCCNCc1coc(-c2ccc(C(C)(C)C)cc2)n1 | – | 1.84 µg/mL and 0.87 µg/mL | 28.1 (≈ 98.1 µM) |
| O=C(NC1CCCCC1)c1cccnc1Cl | > 5 | – | > 50 |
| Cc1ccccc1CN/C(=N\O)c1cccnc1Oc1cc(Cl)ccc1Cl | 1.06 (≈ 2.63 µM) | – | 33.6 (≈ 83.6 µM) |
| O/N=C(\NCC1CCCCC1)c1cccnc1Oc1ccc(Cl)cc1 | 0.92 (≈ 2.56 µM) | – | > 50 |
| COc1ccc(/C=N/Oc2ccccc2)cc1 | > 5 | – | > 50 |
| COc1ccc(/C(=N/O)N(C(=O)C(C)C)C(=O)C(C)C)cc1 | > 5 | – | > 50 |

Further lines, with some results ahead:

| IC50 (Trypanosoma brucei; [2]) [µg/mL] | IC50 (Trypanosoma brucei) | SMILES | IC50 at 24 h [1] [µg/mL] |
| --- | --- | --- | --- |
| > 5 | – | O/N=C(\NC1CCCCC1)c1ccc(Br)cc1 | 38 (≈ 128 µM) |
| – | 0.93 µg/mL and 2.49 µg/mL | Cc1ccc(-c2nc(CNC[C@@H]3CC[C@H]4C[C@@H]3C4(C)C)co2)cc1 | 28.4 (≈ 87.5 µM) |
| 0.46 (≈ 1.25 µM) | – | CC(C)Oc1ccccc1Oc1ncccc1/C(=N/O)NC1CCCCC1 | > 50 |
| 1.08 (≈ 3 µM) | – | CCC(CC)N/C(=N\O)c1ccc(C)nc1Oc1ccc(SC)cc1 | > 50 |
| > 5 | – | C=CCO/N=C/c1ccc(OC)cc1 | > 50 |
| > 5 | – | N#Cc1cccnc1Oc1ccccc1F | > 50 |
| > 5 | – | CO/N=C/c1ccc(OC)cc1 | > 50 |
| > 5 | – | COc1ccc(C(=O)N(C)OC)cc1 | > 50 |
| > 5 | – | O=C(NC1CCCCC1)c1cccnc1Oc1ccccc1Cl | > 50 |
| > 5 | – | CC(C)CO/N=C/c1ccccc1-c1ccccc1 | > 50 |
| 1.06 (≈ 2.58 µM) | – | CC1CC(N/C(=N\O)c2cccnc2Oc2ccccc2OC(C)C)CC(C)(C)C1 (stereo unspecified) | > 50 |
| 0.91 (≈ 2.52 µM) | – | CC1CCC(C)N1/C(=N\O)c1ccc(Oc2ccc3ccccc3c2)nc1 (stereo unspecified) | > 50 |
| 0.59 (≈ 1.89 µM) | – | Cc1cc(C)cc(Oc2ccc(/C(=N/O)NC3CCC3)cn2)c1 | > 50 |
| 0.34 (≈ 1.09 µM) | – | COc1ccc(Oc2ncccc2/C(=N/O)NCC2CC2)cc1 | > 50 |
| > 5 | – | COc1cc(C)ccc1Oc1ncccc1C(=N)N | > 50 |
| 0.21 (≈ 0.622 µM) | – | Cc1ccc(Oc2ncccc2/C(=N/O)NCC2CC2)c2c1CCC2 | > 50 |
| > 5 | – | COc1cc(C)ccc1Oc1ncccc1/C(N)=N/O | > 5 |
| > 5 | – | CSc1ccccc1Oc1ncccc1C#N | > 50 |
| 1.02 (≈ 2.47 µM) | – | COc1cc(C)ccc1Oc1nc(C)ccc1/C(=N/O)NCc1cc(F)cc(F)c1 | > 50 |
| 0.58 (≈ 1.74 µM) | – | CC(C)(C)CN/C(=N\O)c1cccnc1Oc1ccc(Cl)cc1 | > 50 |
| > 5 | – | COc1ccccc1Oc1ncccc1C#N | > 50 |
| 1.08 (≈ 2.86 µM) | – | CCc1ccc(Oc2ncccc2/C(=N/O)NCc2ccccc2OC)cc1 | > 50 |
| 1.08 (≈ 3.18 µM) | – | Cc1cc(C)cc(Oc2ccc(/C(=N/O)NC3CCCCC3)cn2)c1 | > 50 |
| 1.08 (≈ 3.11 µM) | – | CCc1ccc(Oc2ncccc2/C(=N/O)NCc2ccccc2)cc1 | > 50 |
| 0.77 (≈ 2.35 µM) | – | Cc1cc(C)cc(Oc2ccc(/C(=N/O)NCC(C)(C)C)cn2)c1 | > 50 |
| > 5 | – | CO/N=C/c1ccccc1-c1ccccc1 | > 50 |
| > 5 | – | COc1ccc(/C(CO)=N/O)cc1 | > 50 |
